Here are results for 1 substance from patent publication US9241976B2, “Use of HDL-related molecules to treat and prevent proinflammatory conditions” (THE REGENTS OF THE UNIVERSITY OF CALIFORNIA, priority 2011, dated 2016).

Series [1] concerns cyclin D1 and cyclin A. The series can be described thus: Western blot of cyclin D1 and cyclin A in CT26 cells. Type of series: cell-based, mouse. As for the experimental part: Total cell proteins were collected after treatment in cell lysis buffer containing 0.1 mol/L NaCl, 5 mmol/L EDTA, 50 mmol/L sodium orthovanadate, 1% Triton X-100, and protease inhibitor tablet in 50 mmol/L Tris buffer (pH 7.5). Twenty micrograms of total proteins were separated by SDS-PAGE and transferred onto nitrocellulose membrane and followed by incubation with primary antibody at 4° C. in 5% skim milk and 0.1% Tween-20. Anti-cyclin D1 and anti-cyclin A rabbit polyclonal antibodies were used at 1:1,000 dilution, and anti-b-actin polyclonal antibody was used at 1:2,000 dilution.
Background: In western blotting, separated proteins are transferred to a membrane and probed.

Series [2] concerns lysophosphatidic acid (LPA). The series can be described thus: Plasma LPA levels in treated mice. Type of series: in vivo, mouse. Particulars: BALB/c lung tumor mice; 100 mg/kg/d in chow for 3 weeks; vs control mice. Here is the method: LPA (20:4) was purchased from Avanti Polar Lipids. LPA levels were determined as described previously (Murph et al., 2007, Methods Enymol 433:1-25).
LPA (20:4) was purchased from Avanti Polar Lipids. LPA levels were determined as described previously (19).

In series [3] the test system is CT26 cells. The series can be described thus: CT26 cell viability, MTS assay. Particulars: Example 5; CT26 cells, 10 mg/mL, 48 hours.
Series [4] concerns CT26 cells. The series can be described thus: Pulmonary metastasis in vivo: CT26 lung tumors in BALB/c mice. Further details: species or system mouse. The conditions noted are these: CT26 via tail vein, 100 mg/kg/d in chow diet for 3 weeks. As for the experimental part: BALB/c mice were intravenously injected with 2×10^4 CT26 cells in 100 μL of PBS via tail vein injection and the mice were treated with bHDL at 10 mg/kg/day administered SQ for 3 weeks; or treated with bHDL at 100 mg/kg/day administered in a chow diet for 3 weeks. After 3 weeks treatment, the mice were sacrificed; lungs were harvested, weighed and fixed with Bouin's solution (Sigma). Tumor nodules on the lung surface were counted.
BALB/c mice were intravenously injected with 2×10^4 CT26 cells in […] of PBS via tail vein injection and the mice were treated with L-4F or sc-4F at 10 mg/kg/d administered subcutaneously for 3 weeks, or treated with sc-4F or L-4F or G* peptide at 100 mg/kg/d administered in a chow diet for 3 weeks. After 3 weeks treatment, the mice were sacrificed; lungs were harvested, weighed, and fixed with Bouin solution (Sigma). Tumor nodules on the lung surface were counted.

As to “Ac-LVGRQLEEFL-NH2 [G* peptide, Ac-L-V-G-R-Q-L-E-E-F-LNH2]”, the “expression of cyclin D1 and cyclin A” value in series [1] is “lower”. Besides, the “plasma LPA levels” value in series [2] is on record as “significantly reduced”. Also, the “Cell viability reduced, compared with control” value in series [3] is “approximately 40%”. In addition, in series [4], the lung weights is 250 mg and the “tumor numbers on the lung surface” value is on record as 10.
